Source: ChEMBL document CHEMBL6092167, “Phosphorylation as an Effective Tool to Improve Stability and Reduce Toxicity of Antimicrobial Peptides” (J Med Chem, 2024)
In brackets after ≈: the same amount, converted by molar mass. Activity calls are given as the source filed them. The calls are words filed in the database; no cut-off is given here. Non-standard residues stand in square brackets, D forms with d. Residues, ends and D or L forms follow the SMILES beside them. Bip = N[C@@H](Cc1ccc(-c2ccccc2)cc1)C(=O)O

Assays:
[1] = Hemolytic activity in mouse erythrocyte incubated for 1 hr by microplate reader assay; type: toxicity, cell-based
Escherichia coli [2] = test: Antibiofilm activity against Escherichia coli ATCC 25922 assessed as eradication of preformed biofilms incubated for 24 hrs by crystal violet staining based assay; type: functional, organism-based
Cell membrane [3] = test: Induction of inner membrane permeabilization in Escherichia coli ML-35 assessed as increase in […] intensity measured every 5 mins for 135 mins by ONPG dye based microplate reader assay; type: subcellular
Escherichia coli [4] = test: Antibacterial activity against Escherichia coli ATCC 25922 incubated for 18 to 24 hrs by broth microdilution method; type: functional; conditions: time 18-24 hrs
Escherichia coli [5] = test: Antibacterial activity against Escherichia coli 25922 assessed as interaction with LPS by measuring bacterial mortality at 2 times MIC preincubated with LPS for 1 hr followed by bacterial addition and measured after overnight by microplate reader assay; type: functional, organism-based
Cell membrane [6] = test: Induction of cytoplasmic membrane rupture in Pseudomonas aeruginosa ATCC 27853 assessed as wrinkling at 2 times MIC incubated for 30 to 120 mins by SEM analysis; type: subcellular; conditions: time 30-120 min
Escherichia coli [7] = test: Antibiofilm activity against Escherichia coli ATCC 25922 assessed as eradication of preformed biofilms at 2 to 4 times MIC incubated for 24 hrs by crystal violet staining based assay; type: functional, organism-based
Bacillus subtilis = test: Antibacterial activity against Bacillus subtilis ATCC 23857 incubated for 18 to 24 hrs by broth microdilution method; type: functional; conditions: time 18-24 hrs
Klebsiella pneumoniae [8] = test: Additive antibacterial activity against Klebsiella pneumoniae ATCC 700603 assessed as fractional inhibitory concentration index at 1/4 to 4 times MIC incubated for 18 to 24 hrs in presence of rifampicin by checkerboard assay; type: functional; conditions: time 18-24 hrs
Cell membrane [9] = test: Induction of cytoplasmic membrane rupture in Pseudomonas aeruginosa ATCC 27853 assessed as adhesion at 2 times MIC incubated for 30 to 120 mins by SEM analysis; type: subcellular; conditions: time 30-120 min
Cell membrane [10] = test: Induction of cell membrane disruption in Pseudomonas aeruginosa ATCC 27853 at 2 times MIC incubated for 2 hrs by SEM analysis; type: subcellular
Klebsiella pneumoniae [11] = test: Synergistic antibacterial activity against Klebsiella pneumoniae ATCC 700603 assessed as fractional inhibitory concentration index at 1/4 to 4 times MIC incubated for 18 to 24 hrs in presence of polymyxin B by checkerboard assay; type: functional; conditions: time 18-24 hrs
Klebsiella pneumoniae [12] = test: Inhibition of kanamycin resistance in Klebsiella pneumoniae ATCC 700603 at 1:1 compound: kanamycin molar ratio measured after 20 generation; type: functional, organism-based
Klebsiella pneumoniae [13] = test: Antibiofilm activity against Klebsiella pneumoniae ATCC 700603 assessed as eradication of preformed biofilms incubated for 24 hrs by crystal violet staining based assay; type: functional, organism-based
Staphylococcus aureus [14] = test: Antibacterial activity against Staphylococcus aureus ATCC 25923 incubated for 18 to 24 hrs by broth microdilution method; type: functional; conditions: time 18-24 hrs
Escherichia coli [15] = test: Antibacterial activity against Escherichia coli 850 incubated for 18 to 24 hrs by broth microdilution method; type: functional; conditions: time 18-24 hrs
Cell membrane [16] = test: Induction of cell membrane disruption in Staphylococcus aureus ATCC 25923 at 2 times MIC incubated for 2 hrs by SEM analysis; type: subcellular
Escherichia coli [17] = test: Inhibition of biofilm formation in Escherichia coli ATCC 25922 incubated for 24 hrs by crystal violet staining based assay; type: functional, organism-based
Chymotrypsin = Chymotrypsin (Homo sapiens, UniProt Q99895+P17538+P40313+Q6GPI1); test: Stability of compound assessed as chymotrypsin (unknown origin) mediated compound degradation; type: ADME, protein assay
Cell membrane [18] = test: Induction of cytoplasmic membrane rupture in Staphylococcus aureus ATCC 25923 assessed as content leakage at 2 times MIC incubated for 30 to 120 mins by SEM analysis; type: subcellular; conditions: time 30-120 min
Pseudomonas aeruginosa [19] = test: Antibacterial activity against Pseudomonas aeruginosa ATCC 27853 incubated for 18 to 24 hrs by broth microdilution method; type: functional; conditions: time 18-24 hrs
Trypsin = Trypsin (Homo sapiens, UniProt P07477+P07478+P35030); test: Stability of compound assessed as trypsin (unknown origin) mediated compound degradation; type: ADME, protein assay
Staphylococcus aureus [20] = test: Antibacterial activity against Staphylococcus aureus 794 incubated for 18 to 24 hrs by broth microdilution method; type: functional; conditions: time 18-24 hrs
Pseudomonas aeruginosa [21] = test: Inhibition of biofilm formation in Pseudomonas aeruginosa ATCC 27853 incubated for 24 hrs by crystal violet staining based assay; type: functional, organism-based
[22] = Toxicity in ip dosed BALB/c mouse measured after 14 days; type: organism-based; conditions: in vivo, time 14 day
Acinetobacter baumannii = test: Antibacterial activity against Acinetobacter baumannii ATCC 19606 incubated for 18 to 24 hrs by broth microdilution method; type: functional; conditions: time 18-24 hrs
Staphylococcus aureus [23] = test: Antibiofilm activity against Staphylococcus aureus ATCC 25923 assessed as eradication of preformed biofilms at 2 to 4 times MIC incubated for 24 hrs by crystal violet staining based assay; type: functional, organism-based
Klebsiella pneumoniae [24] = test: Antibacterial activity against rifampicin resistant Klebsiella pneumoniae; type: functional
Pseudomonas aeruginosa [25] = test: Antibiofilm activity against Pseudomonas aeruginosa ATCC 27853 assessed as eradication of preformed biofilms incubated for 24 hrs by crystal violet staining based assay; type: functional, organism-based
Cell membrane [26] = test: Induction of outer membrane permeabilization in Escherichia coli ATCC 25922 assessed as increase in fluorescence intensity incubated for 1 min by NPN dye based microplate reader assay; type: subcellular
Escherichia coli [27] = test: Antibacterial activity against Escherichia coli 780 incubated for 18 to 24 hrs by broth microdilution method; type: functional; conditions: time 18-24 hrs
Klebsiella pneumoniae [28] = test: Inhibition of biofilm formation in Klebsiella pneumoniae ATCC 700603 incubated for 24 hrs by crystal violet staining based assay; type: functional, organism-based
Pseudomonas aeruginosa [29] = test: Antibiofilm activity against Pseudomonas aeruginosa ATCC 27853 assessed as eradication of preformed biofilms at 4 times MIC incubated for 24 hrs by crystal violet staining based assay; type: functional, organism-based
Cell membrane [30] = test: Induction of cytoplasmic membrane rupture in Staphylococcus aureus ATCC 25923 assessed as adhesion at 2 times MIC incubated for 30 to 120 mins by SEM analysis; type: subcellular; conditions: time 30-120 min
Staphylococcus aureus [31] = test: Antibacterial activity against methicillin resistant Staphylococcus aureus 48 incubated for 18 to 24 hrs by broth microdilution method; type: functional; conditions: time 18-24 hrs
Staphylococcus aureus [32] = test: Antibiofilm activity against Staphylococcus aureus ATCC 25923 assessed as eradication of preformed biofilms incubated for 24 hrs by crystal violet staining based assay; type: functional, organism-based
Staphylococcus aureus [33] = test: Antibacterial activity against methicillin resistant Staphylococcus aureus ATCC 33591 incubated for 18 to 24 hrs by broth microdilution method; type: functional; conditions: time 18-24 hrs
Staphylococcus aureus [34] = test: Inhibition of biofilm formation in Staphylococcus aureus ATCC 25923 at 1 time MIC incubated for 24 hrs by crystal violet staining based assay; type: functional, organism-based
Klebsiella pneumoniae [35] = test: Antibiofilm activity against Klebsiella pneumoniae ATCC 700603 assessed as eradication of preformed biofilms at 2 to 4 times MIC incubated for 24 hrs by crystal violet staining based assay; type: functional, organism-based
Pseudomonas aeruginosa [36] = test: Antibacterial activity against Pseudomonas aeruginosa 119 incubated for 18 to 24 hrs by broth microdilution method; type: functional; conditions: time 18-24 hrs
Klebsiella pneumoniae [37] = test: Antibacterial activity against kanamycin resistant Klebsiella pneumoniae; type: functional
Cell membrane [38] = test: Induction of membrane damage in Pseudomonas aeruginosa ATCC 27853 assessed as change in membrane shape at 2 times MIC incubated for 30 to 120 mins by SEM analysis; type: subcellular; conditions: time 30-120 min
[39] = Cytotoxicity against HEK293T cells incubated for 1 hr by fluorescence based microplate reader assay; type: toxicity, cell-based, HEK-293T; conditions: human
Klebsiella pneumoniae [40] = test: Durg resistance development in Klebsiella pneumoniae ATCC 700603 measured after 20 passage; type: functional, organism-based

## CC(C)C[C@H](NC(=O)[C@H](CC(C)C)NC(=O)[C@H](Cc1ccc(O)cc1)NC(=O)[C@H](CCCCN)NC(=O)[C@H](CC(C)C)NC(=O)[C@H](CCCNC(=N)N)NC(=O)[C@H](CCCCN)NC(=O)[C@H](Cc1ccc(-c2ccccc2)cc1)NC(=O)[C@H](CC(C)C)NC(=O)CN)C(N)=O (H-GL[Bip]KRLKYLL-NH2)
[1]
  MHC: 27.38 µM
Escherichia coli [2]
  Activity: Dose-dependent-effect; Superior Activity Compared To Polymyxin B And Vancomycin
Cell membrane [3]
  Activity: Dose-dependent-effect; More Potent Than 1% Triton X-100 And Polymyxin B
Escherichia coli [4]
  MIC: 8 µM (≈ 10.6 µg/mL)
Escherichia coli [5]
  Activity: Active; Activity Comparable To Polymyxin B
Cell membrane [6]
  Activity: Active
Escherichia coli [7]
  Activity: Active
Bacillus subtilis
  MIC: 4 µM (≈ 5.3 µg/mL)
Klebsiella pneumoniae [8]
  fractional inhibitory concentration index (FICI): 0.563
Cell membrane [9]
  Activity: Active
Cell membrane [10]
  Activity: Active; More Potent Than Polymyxin B And Vancomycin
Klebsiella pneumoniae [11]
  fractional inhibitory concentration index (FICI): 0.5
Klebsiella pneumoniae [12]
  inhibition: Active
Klebsiella pneumoniae [13]
  Activity: Dose-dependent-effect; Superior Activity Compared To Polymyxin B And Vancomycin
Staphylococcus aureus [14]
  MIC: 8 µM (≈ 10.6 µg/mL)
Escherichia coli [15]
  MIC: 8 µM (≈ 10.6 µg/mL)
Cell membrane [16]
  Activity: Active; More Potent Than Polymyxin B And Vancomycin
Escherichia coli [17]
  inhibition: Dose-dependent-effect; Inhibition Comparable To Polymyxin B
Chymotrypsin
  Stability: Stable
Cell membrane [18]
  Activity: Active
Pseudomonas aeruginosa [19]
  MIC: 8 µM (≈ 10.6 µg/mL)
Trypsin
  Stability: Stable
Staphylococcus aureus [20]
  MIC: 8 µM (≈ 10.6 µg/mL)
Pseudomonas aeruginosa [21]
  inhibition: Dose-dependent-effect; Inhibition Comparable To Polymyxin B
[22]
  LD50 at 336 h: 66.7 mg/kg
Acinetobacter baumannii
  MIC: 8 µM (≈ 10.6 µg/mL)
Staphylococcus aureus [23]
  Activity: Active
Klebsiella pneumoniae [24]
  MIC: 8 µM (≈ 10.6 µg/mL)
Pseudomonas aeruginosa [25]
  Activity: Dose-dependent-effect; Superior Activity Compared To Polymyxin B And Vancomycin
Cell membrane [26]
  Activity: Dose-dependent-effect
Escherichia coli [27]
  MIC: 8 µM (≈ 10.6 µg/mL)
Klebsiella pneumoniae [28]
  inhibition: Dose-dependent-effect; Inhibition Comparable To Polymyxin B
Pseudomonas aeruginosa [29]
  Activity: Active
Cell membrane [30]
  Activity: Active
Staphylococcus aureus [31]
  MIC: 8 µM (≈ 10.6 µg/mL)
Staphylococcus aureus [32]
  Activity: Dose-dependent-effect; Superior Activity Compared To Polymyxin B And Vancomycin
Staphylococcus aureus [33]
  MIC: 8 µM (≈ 10.6 µg/mL)
Staphylococcus aureus [34]
  inhibition: Active
Klebsiella pneumoniae [35]
  Activity: Active
Pseudomonas aeruginosa [36]
  MIC: 8 µM (≈ 10.6 µg/mL)
Klebsiella pneumoniae [37]
  MIC: 8 µM (≈ 10.6 µg/mL)
Cell membrane [38]
  Activity: Active
[39]
  CC50 at 1 h: 50.9 µM
Klebsiella pneumoniae [40]
  Activity: inactive
